Data on 43 molecules can be found in US9981968B2, “Substituted pyrrolo[2,3-d]pyrimidines for the treatment of cancer and proliferative disorders” (Northwestern University, priority 2013, dated 2018).

One may read the IC50 as the concentration that inhibits the measured activity by half.

One test relates to U937 cell lines. The experiment in a line: Immunoblot of PARP cleavage and cleaved caspase 3. Type of test: cell-based, human. The note with it: U937 cell lysates, FIG. 17. As for the experimental part: FIG. 17. Immunoblot of cell lysates from U937 cell lines treated with Compounds 381, 383, 409 (as test compounds) and Compound 501 (as a negative control) as compared to 8-amino adenosine (8NH2-Ado) and 8-chloro adenosine (8Cl-Ado) (as positive controls). The impact of the compounds on proteins associated with cell death was assessed via performing an immunoblot. (See FIG. 17). PARP cleavage indicated activation of the caspase cascade and cell death by induction of apoptosis. Similarly detection of cleaved caspase 3 indicated activation of caspase activity and cell death by apoptosis. GAPDH was included as a loading control to indicate approximately equal loading of protein.
Background: Immunoblotting shows a protein as a band on a membrane.
Turning to `Nc1ncnc2c1nc(Cl)n2[C@@H]1O[C@H](CO)[C@@H](O)[C@H]1O` [Compound 8-Cl-Ado, 8-chloro adenosine], the “induction of apoptosis (PARP cleavage, cleaved caspase 3)” value is recorded as “Induction of apoptosis was observed”.

Consider `Nc1ncnc2c1nc(N)n2[C@@H]1O[C@H](CO)[C@@H](O)[C@H]1O` [Compound 8-NH2-Ado, 8-amino adenosine], for which the “induction of apoptosis (PARP cleavage, cleaved caspase 3)” value is given as “Induction of apoptosis was observed”.

The subject of the next test is MM.1S cells. The test is described as follows: MTS CellTiter 96 cell proliferation assay, MM.1S. In kind it is cell-based, human. The note with it: 0.1-10 μM, MTS assay, FIG. 1, compared with 8-amino adenosine. The protocol: Cell viability was assessed by MTS assay as follows.
The MTS CellTiter 96 assay is a colorimetric method to assess the number of viable cells based on the conversion of a tetrazolium compound (MTS) to a formazan product by the mitochondrial dehydrogenase enzyme of the cells. This assay is used to determine the number of viable cells remaining following a drug treatment in comparison to the number of viable cells that are only treated with the drug vehicle (control cells). The amount of formazan product in the control cells is normalized to 100% and the amount of formazan in the drug treated cells is expressed as a percentage of control. This is used to generate dose response curve and estimate the drug concentration that produced a 50% decrease in the number of viable cells.
Background: Tetrazolium dyes change colour on reduction, which living cells bring about.
With `Cc1ncnc2c1c(C(F)(F)F)cn2CC1CCN(C(=O)OC(C)(C)C)CC1` [NUCC-0000482], the decreasing cell proliferation entry is listed as “not effective in decreasing cell proliferation”.

Regarding `Cc1ncnc2c1c(C(F)(F)F)cn2CC1CCNCC1` [NUCC-0000501], the decreasing cell proliferation result is reported as “not effective in decreasing cell proliferation”.

Staying with this test, now noted: Homo sapiens, MM1.S, MTS cell proliferation assay, read-out: Estimated IC50.
For `Cc1c(C)n(Cc2ccccc2)c2ncnc(Cl)c12` [NUCC-0000280], the IC50 is 5 µM.

Regarding `Clc1ncnc2c1c1c(n2Cc2ccccc2)CCCC1` [NUCC-0000308], the IC50 is 10 µM. Take `FC(F)(F)c1cn(Cc2ccccc2)c2ncnc(Cl)c12` [NUCC-0000315]: the IC50 was 3 µM.

As for `Fc1ccc(Cn2cc(C(F)(F)F)c3c(Cl)ncnc32)cc1` [NUCC-0000325], the IC50 was 5 µM. `FC(F)(F)c1cn(Cc2cccnc2)c2ncnc(Cl)c12` [NUCC-0000326]: the IC50 was 3 µM. Take `FC(F)(F)c1cn(Cc2ccncc2)c2ncnc(Cl)c12` [NUCC-0000327]: the IC50 was 5 µM.

For `FC(F)(F)c1cn(CC2CCOCC2)c2ncnc(Cl)c12` [NUCC-0000329], the IC50 was 3 µM. `CC(C)(C)OC(=O)N1CCC(Cn2cc(C(F)(F)F)c3c(Cl)ncnc32)CC1` [NUCC-0000357]: the IC50 was 1.5 µM. Same read-out and setting: to `FC(F)(F)c1cn(CCN2CCCC2)c2ncnc(Cl)c12` [NUCC-0000358] belongs 3 µM; to `Cc1c(C)n(CC2CCCCC2)c2ncnc(Cl)c12` [NUCC-0000359], 10 µM.

For the molecule `Cc1c(C)n(Cc2ccc(F)cc2)c2ncnc(Cl)c12` [NUCC-0000360], the IC50 was 7 µM. On the same count and under the same terms, the same measure for `COCCn1c(C)c(C)c2c(Cl)ncnc21` [NUCC-0000361]: 10 µM; for `Cc1c(C)n(Cc2ccccc2)c2ncnc(N)c12` [NUCC-0000362]: 10 µM. Still for that read-out and setting: to `Cc1c(C)n(Cc2ccco2)c2ncnc(Cl)c12` [NUCC-0000363] belongs 10 µM; to `Cc1c(C)n(Cc2ccc(F)cc2)c2ncnc(N)c12` [NUCC-0000375], 10 µM. With `COc1cccc(Cn2c(C)c(C)c3c(Cl)ncnc32)c1` [NUCC-0000409], the IC50 is 1.5 µM.

Take `Fc1ccc(Cn2c3c(c4c(Cl)ncnc42)CCCC3)cc1` [NUCC-0000412]: the IC50 is 2.5 µM.

For `Cc1c(C)n(CCN2CCOCC2)c2ncnc(Cl)c12` [NUCC-0000413], the IC50 was 5 µM. Take `NC(=O)N1CCC(Cn2cc(C(F)(F)F)c3c(Cl)ncnc32)CC1` [NUCC-0000469]: the IC50 was 10 µM. Still for that read-out and setting: the same measure for `FC(F)(F)c1cn(CC2CCNCC2)c2ncncc12` [NUCC-0000470]: 10 µM; for `Cc1ncnc2c1cc(C)n2C1O[C@H](CO)[C@@H](O)[C@H]1O` (stereo partly shown) [NUCC-0000477]: 8 µM; for `Nc1nc(Cl)c2c(C(F)(F)F)cn(CC3CCNCC3)c2n1` [NUCC-0000570]: 3 µM. Turning to `CC(C)(C)OC(=O)N1CCC(Cn2ccc3c(Cl)nc(Cl)nc32)CC1` [NUCC-0000571], the IC50 is 5 µM. The same measure, in the same setting: the same measure for `Clc1nc(Cl)c2ccn(CC3CCNCC3)c2n1` [NUCC-0000575]: 3 µM; for `CS(=O)(=O)N1CCC(Cn2cc(C(F)(F)F)c3c(Cl)nc(N)nc32)CC1` [NUCC-0000576]: 3 µM. Same read-out and setting: to `CS(=O)(=O)N1CCC(Cn2ccc3c(Cl)nc(Cl)nc32)CC1` [NUCC-0000577] belongs 5 µM.

Turning to `CS(=O)(=O)N1CCC(Cn2ccc3c(Cl)ncnc32)CC1` [NUCC-0000578], the IC50 was 5 µM. Turning to `O=C(N1CCC(Cn2cc(C(F)(F)F)c3c(Cl)ncnc32)CC1)C(F)(F)F` [NUCC-0000593], the IC50 was 5 µM.

As to `CC(=O)N1CCC(Cn2ccc3c(Cl)nc(Cl)nc32)CC1` [NUCC-0000595], the IC50 was 3 µM. On the same count and under the same terms, the same measure for `CS(=O)(=O)N1CCC(Cn2cc(C(F)(F)F)c3c(Br)ncnc32)CC1` [NUCC-0000598]: 2 µM; for `OCCOCn1cc(C(F)(F)F)c2c(Cl)ncnc21` [NUCC-0050715]: 5 µM. `Cc1cn(CC2CCN(C(=O)OC(C)(C)C)CC2)c2ncnc(Cl)c12` [NUCC-0054036]: the IC50 was 2 µM. Still for that read-out and setting: to `COc1cccc(Cn2cc(C(F)(F)F)c3c(Cl)ncnc32)c1` [NUCC-0054037] belongs 2 µM. Still for that read-out and setting: to `COc1ccc(Cn2cc(C(F)(F)F)c3c(Cl)ncnc32)cc1` [NUCC-0054038] belongs 2 µM; to `Cc1cn(CC2CCNCC2)c2ncnc(Cl)c12` [NUCC-0054039], 1 µM; to `Cc1cn(CC2CCN(S(C)(=O)=O)CC2)c2ncnc(Cl)c12` [NUCC-0054040], 3 µM.

As to `FC(F)(F)c1c[nH]c2ncnc(Cl)c12` [NUCC-0054043], the IC50 was 7 µM. In the case of `FC(F)(F)c1cc2c(Cl)ncnc2n1CC1CCNCC1` [NUCC-0054150], the IC50 is > 10 µM. `CS(=O)(=O)N1CCC(Cn2c(C(F)(F)F)cc3c(Cl)ncnc32)CC1` [NUCC-0054151]: the IC50 was > 10 µM.

The same test, now with this note: MTS cell proliferation assay.
As for `Cc1ncnc2c1c(C(F)(F)F)cn2CC1CCN(C(=O)OC(C)(C)C)CC1` [NUCC-0000482], the “Estimated IC50” value is recorded as “In- active”. As to `Cc1ncnc2c1c(C(F)(F)F)cn2CC1CCNCC1` [NUCC-0000501], the “Estimated IC50” value is recorded as “In- active”.

Another test relates to acute leukemia cell lines (THP-1, K562, Kasumi-1, and U937). The experiment in a line: Inhibition of viability of acute leukemia cell lines. In kind it is cell-based, human. The note with it: THP-1, K562, Kasumi-1, U937; FIGS. 11-14. The protocol:
Compounds 381, 383, 409 (as test compounds) and Compound 501 (as a negative control) were administered to a variety of acute leukemia cell lines (THP-1. K562, Kasumi-1, and U937) in order to test their ability to inhibit cell growth as compared to 8-amino adenosine (8NH2-Ado) and 8-chloro adenosine (8Cl-Ado) (as positive controls) as in the previous Examples.
Consider `COc1cccc(Cn2c(C)c(C)c3c(Cl)ncnc32)c1` [NUCC-0000409], for which the cell viability result was “reduce cell viability significantly”.
